IC50 data for 12 molecules are collected here from patent publication US8076338B2, “Kinase modulators and methods of use” (Exelixis, Inc., priority 2004, dated 2011).

Like-named read-outs stand apart in the source and are kept apart here.

The IC50 is the concentration needed to halve the response being measured.

One assay has as its target AktK (Homo sapiens, UniProt P31749). The experiment in a line: Luciferase-coupled chemiluminescence kinase assay (ATP consumption). The class given is biochemical. Particulars: read-out: AKT-1 IC50. In short, it runs like this:
(§1)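 Enzyme at 2.5-5 nM was preincubated 30 min at room temperature with compound in Tris pH 7.5, MgCl2, TX-100, DTT, then reacted with ATP for 3 h at ambient temperature. Remaining ATP was quantified by luciferase-luciferin chemiluminescence, with consumption kept at 25-60%; […].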

Another assay has as its target p70S6K (Homo sapiens, UniProt P23443). The description is as above. In kind it is biochemical. In short, it runs like this:
as §1

Chain of AktK (P31749 whole entry): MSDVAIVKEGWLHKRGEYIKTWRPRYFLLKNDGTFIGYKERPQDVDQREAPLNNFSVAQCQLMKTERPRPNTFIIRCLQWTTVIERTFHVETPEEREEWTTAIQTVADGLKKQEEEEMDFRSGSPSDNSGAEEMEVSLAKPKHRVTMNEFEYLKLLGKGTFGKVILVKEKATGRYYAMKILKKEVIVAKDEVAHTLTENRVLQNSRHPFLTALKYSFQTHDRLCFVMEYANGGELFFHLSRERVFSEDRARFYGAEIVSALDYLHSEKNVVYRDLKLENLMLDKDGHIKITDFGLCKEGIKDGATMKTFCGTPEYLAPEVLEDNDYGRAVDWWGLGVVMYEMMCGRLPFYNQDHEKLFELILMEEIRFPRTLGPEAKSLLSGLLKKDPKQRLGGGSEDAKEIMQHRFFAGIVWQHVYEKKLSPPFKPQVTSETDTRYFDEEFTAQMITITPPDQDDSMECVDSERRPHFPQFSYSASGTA
Chain of p70S6K (P23443 whole entry): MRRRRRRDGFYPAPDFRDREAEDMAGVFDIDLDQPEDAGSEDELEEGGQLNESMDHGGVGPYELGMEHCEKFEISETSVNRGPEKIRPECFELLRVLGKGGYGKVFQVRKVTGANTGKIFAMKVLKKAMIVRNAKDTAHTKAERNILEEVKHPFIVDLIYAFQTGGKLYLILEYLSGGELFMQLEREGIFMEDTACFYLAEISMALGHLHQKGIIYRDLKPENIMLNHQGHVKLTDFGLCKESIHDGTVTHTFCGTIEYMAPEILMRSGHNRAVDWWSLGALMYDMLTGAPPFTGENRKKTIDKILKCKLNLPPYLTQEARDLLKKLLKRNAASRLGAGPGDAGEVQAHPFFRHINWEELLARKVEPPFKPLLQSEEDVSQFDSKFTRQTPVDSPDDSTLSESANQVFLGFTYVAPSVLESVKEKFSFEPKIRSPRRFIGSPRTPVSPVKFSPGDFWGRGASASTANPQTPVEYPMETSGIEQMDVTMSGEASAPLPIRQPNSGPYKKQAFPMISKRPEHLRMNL

As for `Cc1c(OCCN2CCCC2)cc(Cl)cc1N1CCN(c2ncnc3[nH]nc(C(C)C)c23)CC1` [Entry 137, 4-(4-{5-chloro-2-methyl-3-[(2-pyrrolidin-1-ylethyl)oxy]phenyl}piperazin-1-yl)-3-(1-methylethyl)-1H-pyrazolo[3,4-d]pyrimidine], the IC50 on AktK (Table 1, class symbols per key) was 1000 to 10000 nM; against p70S6K (Table 1, class symbols per key) it was less than 100 nM.

Consider `CC(C)CCNc1c(F)c(NCCN2CCCC2)nc(N2CCN(c3ncnc4[nH]nc(Br)c34)CC2)c1F` [Entry 264, 6-[4-(3-bromo-1H-pyrazolo[3,4-d]pyrimidin-4-yl)piperazin-1-yl]-3,5-difluoro-N~4~-(3-methylbutyl)-N~2~-(2-pyrrolidin-1-ylethyl)pyridine-2,4-diamine], for which the IC50 on AktK (Table 1, class symbols per key) is 100 to 1000 nM; at p70S6K (Table 1, class symbols per key), less than 100 nM.

With `Fc1ccc(-c2ccc(Cl)c(N3CCN(c4ncnc5[nH]nc(Br)c45)CC3)c2)c(OCCN2CCCC2)c1` [Entry 289, 3-bromo-4-(4-{4-chloro-4′-fluoro-2′-[(2-pyrrolidin-1-ylethyl)oxy]biphenyl-3-yl}piperazin-1-yl)-1H-pyrazolo[3,4-d]pyrimidine], the IC50 at AktK and on p70S6K was less than 100 nM in each case.

Turning to `Cc1c(NCCN2CCCC2)cc(S(C)(=O)=O)cc1N1CCN(c2ncnc3[nH]nc(Br)c23)CC1` [Entry 261, 3-[4-(3-bromo-1H-pyrazolo[3,4-d]pyrimidin-4-yl)piperazin-1-yl]-2-methyl-5-(methylsulfonyl)-N-(2-pyrrolidin-1-ylethyl)aniline], the IC50 was 100 to 1000 nM on AktK (Table 1, class symbols per key) and less than 100 nM on p70S6K (Table 1, class symbols per key).

With `Cc1ccc(Cl)cc1N1CCN(c2ncnc3[nH]nc(C#CCN4CCCC4)c23)CC1` [Entry 397, 4-[4-(5-chloro-2-methylphenyl)piperazin-1-yl]-3-(3-pyrrolidin-1-ylprop-1-yn-1-yl)-1H-pyrazolo[3,4-d]pyrimidine], the figures for the IC50 on AktK and against p70S6K were 1000 to 10000 nM and 100 to 1000 nM, respectively.

For “6-(4-phenylpiperazin-1-yl)-9H-purine [Example 1]”, the IC50 is 1000 to 10000 nM at AktK (Table 1, class symbols per key) and 1000 to 10000 nM at p70S6K (Table 1, class symbols per key).

For the molecule `CCc1n[nH]c2ncnc(N3CCN(c4cc(Cl)cc(C(=O)OC)c4OC)CC3)c12` [Entry 368, methyl 5-chloro-3-[4-(3-ethyl-1H-pyrazolo[3,4-d]pyrimidin-4-yl)piperazin-1-yl]-2-(methyloxy)benzoate], the results for the IC50 at AktK and on p70S6K were 1000 to 10000 nM and 100 to 1000 nM, respectively.

On to `CCc1n[nH]c2ncnc(N3CCN(c4cc(Br)cc(N)c4C)CC3)c12` [Entry 165, 5-bromo-3-[4-(3-ethyl-1H-pyrazolo[3,4-d]pyrimidin-4-yl)piperazin-1-yl]-2-methylaniline], for which the IC50 on AktK (Table 1, class symbols per key) is 100 to 1000 nM; against p70S6K (Table 1, class symbols per key), less than 100 nM.

For the molecule `Cc1c(NCCN2CCCC2)cc(CCC(C)(C)C)cc1N1CCN(c2ncnc3[nH]nc(Br)c23)CC1` [Entry 244, 3-[4-(3-bromo-1H-pyrazolo[3,4-d]pyrimidin-4-yl)piperazin-1-yl]-5-(3,3-dimethylbutyl)-2-methyl-N-(2-pyrrolidin-1-ylethyl)aniline], the IC50 at AktK (Table 1, class symbols per key) is less than 100 nM; against p70S6K (Table 1, class symbols per key), less than 100 nM.

Take `Brc1n[nH]c2ncnc(N3CCN(c4nccc(-c5ccco5)n4)CC3)c12` [Entry 143, 3-bromo-4-[4-(4-furan-2-ylpyrimidin-2-yl)piperazin-1-yl]-1H-pyrazolo[3,4-d]pyrimidine]: the IC50 is not below 10000 nM at AktK (Table 1, class symbols per key) and 100 to 1000 nM on p70S6K (Table 1, class symbols per key).

For the molecule `Cc1c(CCCN2CCN(C)CC2)cc(Cl)cc1N1CCN(c2ncnc3[nH]nc(Br)c23)CC1` [Entry 19, 3-bromo-4-(4-{5-chloro-2-methyl-3-[3-(4-methylpiperazin-1-yl)propyl]phenyl}piperazin-1-yl)-1H-pyrazolo[3,4-d]pyrimidine], the IC50 was less than 100 nM at AktK (Table 1, class symbols per key) and less than 100 nM at p70S6K (Table 1, class symbols per key).

With `CCc1n[nH]c2ncnc(N3CCN(c4cc(Cl)cc(OCCCN5CCCC5)c4C)CC3)c12` [Entry 35, 4-(4-{5-chloro-2-methyl-3-[(3-pyrrolidin-1-ylpropyl)oxy]phenyl}piperazin-1-yl)-3-ethyl-1H-pyrazolo[3,4-d]pyrimidine], the IC50 on AktK (Table 1, class symbols per key) is 100 to 1000 nM; against p70S6K (Table 1, class symbols per key) it was less than 100 nM.
